Test results: patent US20060110790A1, “Expression system for large functional proteins” (priority 2002, published 2006)

Biological target: T1, ABCR K939M, K1978M and K939M/K1978M mutants (Homo sapiens, UniProt P78363, K1978M/K969M)
T1 construct: made in house
Assay: ATPase activity of Walker A lysine-to-methionine mutants
Type: biochemical
Details: 50 μM all-trans retinal
Method: FIG. 4. Lysine to methionine Walker A mutations in ABCR abolish ATP hydrolysis but not ATP binding. A. ATPase activity was measured in the absence (white bars) or presence of 50 μM all-trans retinal (grey bars). WT, wild-type; K969M in NBD1; K1978M in NBD2; MM, K969M/K1978M double mutant; NCM, N-half co-expressed with C-half containing a K1978M mutation. B. ATP photoaffinity labeling was carried out by irradiating membranes from COS-1 cells expressing wild-type (WT), K969M, K1978M, or K969M/K1978M double mutant (MM) with 3 μM 8-azido-[α-^32P]ATp. The labeled protein was isolated with Rim3F4-Sepharose and separated on SDS gels. Left panel: gel stained with Coomassie blue. Right panel: corresponding ^32P labeling obtained with a phosphorimager. All mutant proteins were labeled with 8-azido-[α-^32P]ATP, but the double mutant bound less nucleotide.
ATPase activity was measured as described previously (Ahn, J., Wong, J. T., and Molday, R. S. (2000) J Biol Chem 275(27), 20399-405) using 50 μM [α^32P]ATP and thin layer chromatography. The all-trans retinal concentration was determined spectrophotometrically (λ383 nm=42.88 mM^−1 cm^−1). Protein concentration was estimated from the eluate before reconstitution by laser densitometry of Coomassie blue stained gels using bovine serum albumin as a standard. […]

T1 sequence (P78363 whole entry K969M/K1978M): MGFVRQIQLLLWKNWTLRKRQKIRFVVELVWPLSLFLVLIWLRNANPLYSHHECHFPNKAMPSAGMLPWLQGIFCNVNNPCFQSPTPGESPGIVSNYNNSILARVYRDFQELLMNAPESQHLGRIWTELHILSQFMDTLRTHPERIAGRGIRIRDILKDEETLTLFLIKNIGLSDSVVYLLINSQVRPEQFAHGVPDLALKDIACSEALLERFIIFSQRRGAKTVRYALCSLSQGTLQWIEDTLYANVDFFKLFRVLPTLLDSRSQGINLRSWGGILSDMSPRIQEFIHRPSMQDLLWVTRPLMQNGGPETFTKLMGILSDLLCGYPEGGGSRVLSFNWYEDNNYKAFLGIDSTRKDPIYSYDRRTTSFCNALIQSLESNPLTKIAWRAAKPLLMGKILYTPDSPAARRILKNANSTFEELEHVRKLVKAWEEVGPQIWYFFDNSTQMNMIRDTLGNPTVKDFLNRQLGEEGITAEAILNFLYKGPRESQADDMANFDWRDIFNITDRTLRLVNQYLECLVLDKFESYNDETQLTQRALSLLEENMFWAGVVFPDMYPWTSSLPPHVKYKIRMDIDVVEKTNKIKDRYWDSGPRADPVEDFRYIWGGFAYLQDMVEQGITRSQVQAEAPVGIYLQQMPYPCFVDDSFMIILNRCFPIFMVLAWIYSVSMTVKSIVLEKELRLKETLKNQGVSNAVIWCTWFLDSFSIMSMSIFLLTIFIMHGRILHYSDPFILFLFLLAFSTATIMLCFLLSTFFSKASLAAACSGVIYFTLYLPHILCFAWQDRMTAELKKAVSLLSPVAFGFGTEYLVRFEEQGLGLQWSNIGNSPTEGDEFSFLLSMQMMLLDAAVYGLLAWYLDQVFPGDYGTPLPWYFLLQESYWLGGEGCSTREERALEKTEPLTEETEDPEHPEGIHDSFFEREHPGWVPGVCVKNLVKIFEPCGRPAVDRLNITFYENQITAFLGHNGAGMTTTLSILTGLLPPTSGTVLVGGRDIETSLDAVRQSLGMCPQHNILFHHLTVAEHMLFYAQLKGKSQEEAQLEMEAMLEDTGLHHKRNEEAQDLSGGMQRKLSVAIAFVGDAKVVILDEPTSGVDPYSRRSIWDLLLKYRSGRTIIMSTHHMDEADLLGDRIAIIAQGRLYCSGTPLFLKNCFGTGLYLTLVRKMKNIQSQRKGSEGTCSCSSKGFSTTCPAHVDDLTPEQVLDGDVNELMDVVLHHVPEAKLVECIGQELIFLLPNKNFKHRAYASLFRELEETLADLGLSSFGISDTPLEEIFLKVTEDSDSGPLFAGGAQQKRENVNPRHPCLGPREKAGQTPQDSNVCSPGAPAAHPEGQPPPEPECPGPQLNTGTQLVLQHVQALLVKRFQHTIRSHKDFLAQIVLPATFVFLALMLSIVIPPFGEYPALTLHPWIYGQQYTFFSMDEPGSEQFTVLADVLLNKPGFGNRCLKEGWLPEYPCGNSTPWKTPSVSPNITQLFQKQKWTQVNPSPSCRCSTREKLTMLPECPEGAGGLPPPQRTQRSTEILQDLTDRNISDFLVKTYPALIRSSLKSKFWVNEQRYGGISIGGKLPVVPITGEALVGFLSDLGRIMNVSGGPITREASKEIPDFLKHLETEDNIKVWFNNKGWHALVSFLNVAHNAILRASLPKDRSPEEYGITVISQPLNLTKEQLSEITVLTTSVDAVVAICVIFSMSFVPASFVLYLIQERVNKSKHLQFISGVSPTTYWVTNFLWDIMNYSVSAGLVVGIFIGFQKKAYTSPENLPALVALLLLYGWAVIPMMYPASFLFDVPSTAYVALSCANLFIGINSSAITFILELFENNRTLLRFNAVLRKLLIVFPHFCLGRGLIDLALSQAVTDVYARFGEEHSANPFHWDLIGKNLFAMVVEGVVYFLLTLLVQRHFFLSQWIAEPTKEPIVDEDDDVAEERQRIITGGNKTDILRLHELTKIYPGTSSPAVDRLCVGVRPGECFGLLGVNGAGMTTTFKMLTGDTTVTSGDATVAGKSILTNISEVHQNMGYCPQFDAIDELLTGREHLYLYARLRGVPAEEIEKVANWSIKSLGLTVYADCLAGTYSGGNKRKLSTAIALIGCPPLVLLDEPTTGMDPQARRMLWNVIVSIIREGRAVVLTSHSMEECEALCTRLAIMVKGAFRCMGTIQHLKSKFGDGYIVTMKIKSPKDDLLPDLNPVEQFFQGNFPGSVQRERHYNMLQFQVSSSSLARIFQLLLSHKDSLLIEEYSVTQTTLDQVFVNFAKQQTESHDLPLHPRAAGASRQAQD

CC1=C(/C=C/C(C)=C/C=C/C(C)=C/C=O)C(C)(C)CCC1 [all-trans retinal]
retinal activation of ATPase activity: abolished retinal activation
